The record followed here is ChEMBL document CHEMBL1201862, “PubChem BioAssay data set” (2004).

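Values below derive from 48-hour exposures of cells grown in 96-well plates, with endpoints linearly interpolated between the two concentrations bracketing the appropriate inhibition level. The concentration for 50% growth inhibition is given as GI50.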 The source made the active and inactive calls. Rule as the data show it: active = GI50 up to about 1.1 µM and inactive = higher.

Test systems include SNB-19; EKVX; HOP-62; MDA-N; T47D; DU-145; LOX IMVI; KM12; SF-268; SF-295; MOLT-4; K562; CCRF-CEM; HCC 2998; SK-MEL-2; SR; 786-0; SK-OV-3.
Common to all, as to assay: DTP human tumour cell line panel, 48 h

Consider `CN(C)CCn1c(=O)c2ccc(NCCCN(C)CCCNc3ccc4c(=O)n(CCN(C)C)c(=O)n5c6ccc(O)cc6c(=O)c3c45)c3c(=O)c4cc(O)ccc4n(c1=O)c23`, for which the 50% growth inhibitory concentration (GI50) in the assay with SNB-19 is < 0.01 µM (active); with EKVX it was 0.0933 µM (active); in the assay on HOP-62, < 0.032 µM (active); in the assay on MDA-N, < 0.0337 µM (active); with T47D, 0.0624 µM (active); in the assay on DU-145 it was < 0.01 µM (active). Also, the concentration for 50% growth inhibition (GI50) in the assay on LOX IMVI was < 0.01 µM (active); in the assay with KM12, < 0.01 µM (active); with SF-268 it was 0.0481 µM (active); with SF-295, < 0.01 µM (active); in the assay on MOLT-4, < 0.01 µM (active); in the assay on K562, < 0.01 µM (active). For the same compound, the concentration for 50% growth inhibition (GI50) in the assay on CCRF-CEM was < 0.01 µM (active); in the assay with HCC 2998, < 0.0151 µM (active); with SK-MEL-2, 0.0335 µM (active); with SR, < 0.01 µM (active); in the assay on 786-0, < 0.01 µM (active).
`O=C1Nc2ccc(Br)cc2/C1=N/c1ccc(Cl)cc1`: the GI50 with SNB-19 is 28 µM (inactive); in the assay with EKVX it was 15.9 µM (inactive); in the assay on SK-OV-3 it was 40.8 µM (inactive); with HOP-62, 21.7 µM (inactive); in the assay on MDA-N, 6.98 µM (inactive); with T47D, 16.9 µM (inactive). The GI50 in the assay with DU-145 was 47.2 µM (inactive); in the assay with LOX IMVI, 0.521 µM (active); in the assay on KM12, 4.55 µM (inactive); in the assay on SF-268, 14.6 µM (inactive); in the assay on SF-295, 3.63 µM (inactive); with MOLT-4, 25.6 µM (inactive). Further, the GI50 with K562 is 0.586 µM (active); in the assay on CCRF-CEM it was 11.6 µM (inactive); in the assay with HCC 2998 it was 19.1 µM (inactive); in the assay with SR, 6.21 µM (inactive); in the assay with 786-0, 26.3 µM (inactive).
With `C=CCC1(O)c2cccc(O)c2C(=O)c2c(O)cccc21`, the GI50 with EKVX is 27.5 µM (inactive); with HOP-62, 80.2 µM (inactive); with MDA-N, 9.93 µM (inactive); with T47D it was 23.3 µM (inactive); with DU-145, 29.9 µM (inactive); with LOX IMVI, 20.9 µM (inactive). In addition, the GI50 with KM12 is 24.4 µM (inactive); with SF-268, 32.7 µM (inactive); with SF-295, 27.1 µM (inactive); with MOLT-4, 29.3 µM (inactive); in the assay on K562, 21 µM (inactive); in the assay on HCC 2998, 17.5 µM (inactive). In addition, the GI50 was 17.3 µM (inactive) in the assay on SK-MEL-2, 10.9 µM (inactive) with SR and 35.8 µM (inactive) with 786-0.
Regarding `O=C(Nc1ccc2ncccc2c1)c1cc2c(cc1Cl)Sc1nccn1S2(=O)=O`, the GI50 in the assay on SNB-19 is 16.4 µM (inactive); in the assay on EKVX, 19.1 µM (inactive); with SK-OV-3, 33.3 µM (inactive); in the assay with HOP-62, 16.4 µM (inactive); in the assay with MDA-N, 5.56 µM (inactive); with T47D it was 14.7 µM (inactive). In addition, the GI50 with DU-145 was 14.3 µM (inactive); in the assay with LOX IMVI, 12.9 µM (inactive); in the assay with KM12 it was 6.4 µM (inactive); with SF-268 it was 18.1 µM (inactive); with SF-295, 15.9 µM (inactive); with MOLT-4, 18.4 µM (inactive). Moreover, the GI50 in the assay with K562 is 6.31 µM (inactive); with HCC 2998 it was 14.7 µM (inactive); in the assay with SK-MEL-2 it was 17.3 µM (inactive); in the assay with SR it was 4.36 µM (inactive); with 786-0 it was 13.6 µM (inactive).
In the case of `CS(=O)(=O)OCCCSCCSCCCOS(C)(=O)=O`, the GI50 in the assay with SNB-19, in the assay with EKVX, in the assay with SK-OV-3, in the assay with HOP-62, in the assay with MDA-N and in the assay on T47D was > 100 µM (inactive) throughout. Further, the GI50 in the assay with DU-145, in the assay on LOX IMVI, with KM12, in the assay on SF-268, in the assay on SF-295 and in the assay on MOLT-4 was > 100 µM (inactive) in each case. Besides, the GI50 in the assay with K562, in the assay with CCRF-CEM, in the assay on HCC 2998, in the assay on SR and with 786-0 was > 100 µM (inactive) each time.
For `COc1cc(/C=[N+](\[O-])c2ccccc2Cl)ccc1OC(=S)S`, the GI50 with SNB-19 is 55.1 µM (inactive); in the assay with EKVX, 29.2 µM (inactive); in the assay on SK-OV-3, 43.9 µM (inactive); with HOP-62, 39.9 µM (inactive); with MDA-N, 29 µM (inactive); in the assay on T47D, 18.8 µM (inactive). Besides, the GI50 is 72.1 µM (inactive) in the assay with DU-145; 36.9 µM (inactive) in the assay on LOX IMVI; 15.1 µM (inactive) in the assay with KM12; 42.7 µM (inactive) in the assay with SF-268; 30.3 µM (inactive) in the assay with SF-295; 27 µM (inactive) in the assay on MOLT-4. The GI50 in the assay with K562 is 25.9 µM (inactive); in the assay with HCC 2998, 37 µM (inactive); in the assay with SK-MEL-2 it was 32.5 µM (inactive); in the assay with SR, 26.1 µM (inactive); with 786-0, 50.4 µM (inactive).
As to `Oc1[nH]c(Nc2cccc(CC(F)(F)F)c2)nc2ncnc1-2`, the GI50 in the assay on SNB-19, with EKVX, in the assay on SK-OV-3, with HOP-62, with MDA-N and with T47D was > 100 µM (inactive) each time. In addition, the GI50 in the assay with DU-145, in the assay with LOX IMVI, in the assay with KM12, with SF-268, in the assay on SF-295 and in the assay on CCRF-CEM was > 100 µM (inactive) in each case. The GI50 in the assay with HCC 2998, with SK-MEL-2, in the assay on SR and in the assay on 786-0 was > 100 µM (inactive) throughout.
As for `CC(=O)N1N=C(c2ccc3ccccc3c2O)CC1c1ccc(N(C)C)cc1` (stereo not drawn), the GI50 with SK-OV-3, in the assay on HOP-62, in the assay with MDA-N, in the assay on T47D, in the assay on DU-145 and with KM12 was > 100 µM (inactive) throughout. Also, the GI50 with SF-268, in the assay with SF-295, with MOLT-4, in the assay with K562, in the assay on CCRF-CEM and in the assay on HCC 2998 was > 100 µM (inactive) throughout. Also, the GI50 with SK-MEL-2 was > 100 µM (inactive); with SR, 10.9 µM (inactive); with 786-0, > 100 µM (inactive).
`O=C1C(C(O)(C(F)(F)Cl)C(F)(F)Cl)CCC1C(O)(C(F)(F)Cl)C(F)(F)Cl` (stereo not drawn): the GI50 was 4.3 µM (inactive) in the assay on SNB-19; 4.1 µM (inactive) in the assay on EKVX; 5.51 µM (inactive) with SK-OV-3; 5.57 µM (inactive) in the assay with HOP-62; > 10 µM (inactive) in the assay on MDA-N; 4.44 µM (inactive) in the assay on T47D. Also, the GI50 in the assay with DU-145 was 3.81 µM (inactive); with LOX IMVI it was 3.94 µM (inactive); in the assay with KM12 it was 4.45 µM (inactive); with SF-268, 3.57 µM (inactive); in the assay on SF-295, 2.58 µM (inactive); in the assay on MOLT-4, 5.55 µM (inactive). In addition, the GI50 with K562 is > 10 µM (inactive); in the assay with HCC 2998, 3.42 µM (inactive); in the assay on SK-MEL-2, 2.3 µM (inactive); in the assay with SR, > 10 µM (inactive); with 786-0, > 10 µM (inactive).

As a reminder, the GI50 is the concentration at which growth is held to half of that of the control.
